Data: BigSolDB 2.1

Oc1ccccc1/C=N/CC/N=C/c1ccccc1O
solubility (mole fraction)
Conditions	in dichloromethane	in diethyl ether	in ethanol	in methanol	in n-hexane	in toluene
268.15 K	0.0352	0.00119	–	–	–	–
273.15 K	0.0369	0.00136	–	–	–	–
278.15 K	0.0408	0.00165	0.00026	0.0003	–	0.00947
283.15 K	0.0469	0.00193	0.00035	0.00036	–	0.0115
288.15 K	0.0533	0.00232	0.00048	0.00049	0.00084	0.014
293.15 K	0.0605	0.00281	0.00069	0.00064	0.00095	0.0164
298.15 K	0.0696	0.0035	0.0009	0.00081	0.00112	0.0198
303.15 K	0.0775	0.00455	0.00112	0.00099	0.00127	0.0256
308.15 K	–	–	0.00147	0.00125	0.00143	0.0305
313.15 K	–	–	0.00199	0.00155	0.00161	0.0379
318.15 K	–	–	0.00252	0.00185	0.00186	0.047
